Assay results from the supplement of paper PMC11208160.

Assay: recombinant barcode read abundance after kanamycin selection (control-corrected) (log10(CPM+1)); higher = more efficient recombination; sequences stand for … in AGTGCAGAGAAAATCGGCCAGTTTTCTCTGCCTGCAGTCCGCATGCCGT…ATTTATGCAGCGGACTGCCTTTCTCCCAAAGTGATAAACCGGACAGTATCATGGACCGGTTTTCCCGGTAATCCGTATTTGCAAGGTTGGTTTCACT; site = the 11-nt target
Description: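 Same pooled E. coli target screen (IS621 bridge recombinase, kanamycin selection, control-corrected CPM, mean of 2 biological replicates). Here the two core-binding nucleotides of the LTG and RTG of the bridge RNA target-binding loop are mutated. Target and donor CT cores are held constant, and the other 9 guide positions match the target. The target is read from the library oligo sequence. Molecule = full bridge RNA written as DNA: nt 1-80 from the library oligo, rest WT scaffold.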
For “GGCTCCCCTTGGGTTCTAACCTGTTGCGGCC [GGCTCCCCTCC_LTGcore_CT_RTGcore_GG] (site GGCTCCCCTCC) (LTG core: CT, RTG core: GG)”, the “recombinant barcode read abundance (log10)” value was 0.131. With “TGATACCCCTGGGTTCTAACCTGTTGCGTGG [TGATACCCTAC_LTGcore_CC_RTGcore_CC] (site TGATACCCTAC) (LTG core: CC, RTG core: CC)” the “recombinant barcode read abundance (log10)” value was 0.351. In the case of “ATGCTTTTCTGGGTTCTAACCTGTTGCCTGA [ATGCTTTCTAG_LTGcore_TC_RTGcore_TC] (site ATGCTTTCTAG) (LTG core: TC, RTG core: TC)”, the “recombinant barcode read abundance (log10)” value is reported as 0.187. With “GTCGCCCCTTGGGTTCTAACCTGTTGCTAAG [GTCGCCCCTTA_LTGcore_CT_RTGcore_CT] (site GTCGCCCCTTA) (LTG core: CT, RTG core: CT)” the “recombinant barcode read abundance (log10)” value was 0.234. With “GAGTCCACCTGGGTTCTAACCTGTTGCGTGG [GAGTCCACTAC_LTGcore_CC_RTGcore_CC] (site GAGTCCACTAC) (LTG core: CC, RTG core: CC)” the “recombinant barcode read abundance (log10)” value was 0.0684. For “AAACATGCTTGGGTTCTAACCTGTTGCCTAT [AAACATGCTAG_LTGcore_CT_RTGcore_AT] (site AAACATGCTAG) (LTG core: CT, RTG core: AT)”, the “recombinant barcode read abundance (log10)” value was 0.681. With “AAACATGCGTGGGTTCTAACCTGTTGCCTCG [AAACATGCTAG_LTGcore_CG_RTGcore_CG] (site AAACATGCTAG) (LTG core: CG, RTG core: CG)” the “recombinant barcode read abundance (log10)” value was 0.135. With “GGTGCCCCCTGGGTTCTAACCTGTTGCCGAG [GGTGCCCCTCG_LTGcore_CC_RTGcore_CT] (site GGTGCCCCTCG) (LTG core: CC, RTG core: CT)” the “recombinant barcode read abundance (log10)” value was 0.15. In the case of “CGCGCCCCTTGGGTTCTAACCTGTTGCGGTC [CGCGCCCCTCC_LTGcore_CT_RTGcore_GA] (site CGCGCCCCTCC) (LTG core: CT, RTG core: GA)”, the “recombinant barcode read abundance (log10)” value is reported as 0.041. In the case of “GCGCGACTTTGGGTTCTAACCTGTTGCTTAG [GCGCGACCTAA_LTGcore_TT_RTGcore_CT] (site GCGCGACCTAA) (LTG core: TT, RTG core: CT)”, the “recombinant barcode read abundance (log10)” value is reported as 0.109. For “GAGCCCACTTGGGTTCTAACCTGTTGCCTCC [GAGCCCACTAG_LTGcore_CT_RTGcore_GG] (site GAGCCCACTAG) (LTG core: CT, RTG core: GG)”, the “recombinant barcode read abundance (log10)” value was 0.136. With “ATGTCCCCTTGGGTTCTAACCTGTTGCTCGA [ATGTCCCCTGA_LTGcore_CT_RTGcore_TC] (site ATGTCCCCTGA) (LTG core: CT, RTG core: TC)” the “recombinant barcode read abundance (log10)” value was 0.0646. With “GGTGCCCAATGGGTTCTAACCTGTTGCCGTT [GGTGCCCCTCG_LTGcore_AA_RTGcore_AA] (site GGTGCCCCTCG) (LTG core: AA, RTG core: AA)” the “recombinant barcode read abundance (log10)” value was 0.404. For “GGGCGGACGTGGGTTCTAACCTGTTGCGGAG [GGGCGGACTCC_LTGcore_CG_RTGcore_CT] (site GGGCGGACTCC) (LTG core: CG, RTG core: CT)”, the “recombinant barcode read abundance (log10)” value was 1.66. In the case of “CGCGCCCATTGGGTTCTAACCTGTTGCGGAT [CGCGCCCCTCC_LTGcore_AT_RTGcore_AT] (site CGCGCCCCTCC) (LTG core: AT, RTG core: AT)”, the “recombinant barcode read abundance (log10)” value is reported as 0.0457. In the case of “GAGTCCTTCTGGGTTCTAACCTGTTGCCTAG [GAGTCCTCTAG_LTGcore_TC_RTGcore_CT] (site GAGTCCTCTAG) (LTG core: TC, RTG core: CT)”, the “recombinant barcode read abundance (log10)” value is reported as 0.0148. With “GAGGCCTCTTGGGTTCTAACCTGTTGCCAAC [GAGGCCTCTTG_LTGcore_CT_RTGcore_GT] (site GAGGCCTCTTG) (LTG core: CT, RTG core: GT)” the “recombinant barcode read abundance (log10)” value was 1.25. For “GCGCGACCTTGGGTTCTAACCTGTTGCTTAT [GCGCGACCTAA_LTGcore_CT_RTGcore_AT] (site GCGCGACCTAA) (LTG core: CT, RTG core: AT)”, the “recombinant barcode read abundance (log10)” value was 0.103. For “AGTCTTACTTGGGTTCTAACCTGTTGCCAAC [AGTCTTACTTG_LTGcore_CT_RTGcore_GT] (site AGTCTTACTTG) (LTG core: CT, RTG core: GT)”, the “recombinant barcode read abundance (log10)” value was 0.0371. In the case of “AAACATGCTTGGGTTCTAACCTGTTGCCTCA [AAACATGCTAG_LTGcore_CT_RTGcore_TG] (site AAACATGCTAG) (LTG core: CT, RTG core: TG)”, the “recombinant barcode read abundance (log10)” value is reported as 0.288. In the case of “AGGCGGGTGTGGGTTCTAACCTGTTGCGGCA [AGGCGGGCTCC_LTGcore_TG_RTGcore_TG] (site AGGCGGGCTCC) (LTG core: TG, RTG core: TG)”, the “recombinant barcode read abundance (log10)” value is reported as 0.0694. In the case of “AGGCGGGAGTGGGTTCTAACCTGTTGCGGCT [AGGCGGGCTCC_LTGcore_AG_RTGcore_AG] (site AGGCGGGCTCC) (LTG core: AG, RTG core: AG)”, the “recombinant barcode read abundance (log10)” value is reported as 0.0482. For “CATATTACGTGGGTTCTAACCTGTTGCCTAG [CATATTACTAG_LTGcore_CG_RTGcore_CT] (site CATATTACTAG) (LTG core: CG, RTG core: CT)”, the “recombinant barcode read abundance (log10)” value was 0.0547. In the case of “GCGGGACCTTGGGTTCTAACCTGTTGCCTGC [GCGGGACCTAG_LTGcore_CT_RTGcore_GC] (site GCGGGACCTAG) (LTG core: CT, RTG core: GC)”, the “recombinant barcode read abundance (log10)” value is reported as 1.08. In the case of “CATATTATTTGGGTTCTAACCTGTTGCCTAG [CATATTACTAG_LTGcore_TT_RTGcore_CT] (site CATATTACTAG) (LTG core: TT, RTG core: CT)”, the “recombinant barcode read abundance (log10)” value is reported as 0. In the case of “ACGGGACCTTGGGTTCTAACCTGTTGCAGAT [ACGGGACCTCT_LTGcore_CT_RTGcore_AT] (site ACGGGACCTCT) (LTG core: CT, RTG core: AT)”, the “recombinant barcode read abundance (log10)” value is reported as 1.4. With “CGGTCCCTATGGGTTCTAACCTGTTGCCAAG [CGGTCCCCTTG_LTGcore_TA_RTGcore_CT] (site CGGTCCCCTTG) (LTG core: TA, RTG core: CT)” the “recombinant barcode read abundance (log10)” value was 0.0831. For “TCGCGACCATGGGTTCTAACCTGTTGCCGTG [TCGCGACCTCG_LTGcore_CA_RTGcore_CA] (site TCGCGACCTCG) (LTG core: CA, RTG core: CA)”, the “recombinant barcode read abundance (log10)” value was 0.139. In the case of “GGTGCCCCTTGGGTTCTAACCTGTTGCCGGG [GGTGCCCCTCG_LTGcore_CT_RTGcore_CC] (site GGTGCCCCTCG) (LTG core: CT, RTG core: CC)”, the “recombinant barcode read abundance (log10)” value is reported as 0.295. With “TCTACCCCTTGGGTTCTAACCTGTTGCTGTG [TCTACCCCTCA_LTGcore_CT_RTGcore_CA] (site TCTACCCCTCA) (LTG core: CT, RTG core: CA)” the “recombinant barcode read abundance (log10)” value was 0.182. For “CATATTATCTGGGTTCTAACCTGTTGCCTAG [CATATTACTAG_LTGcore_TC_RTGcore_CT] (site CATATTACTAG) (LTG core: TC, RTG core: CT)”, the “recombinant barcode read abundance (log10)” value was 0.127. In the case of “GCGCGACAATGGGTTCTAACCTGTTGCTTTT [GCGCGACCTAA_LTGcore_AA_RTGcore_AA] (site GCGCGACCTAA) (LTG core: AA, RTG core: AA)”, the “recombinant barcode read abundance (log10)” value is reported as 0.188. In the case of “CGAGCCCTATGGGTTCTAACCTGTTGCTGAG [CGAGCCCCTCA_LTGcore_TA_RTGcore_CT] (site CGAGCCCCTCA) (LTG core: TA, RTG core: CT)”, the “recombinant barcode read abundance (log10)” value is reported as 0.312. For “TGTATTCCTTGGGTTCTAACCTGTTGCCTTG [TGTATTCCTAG_LTGcore_CT_RTGcore_CA] (site TGTATTCCTAG) (LTG core: CT, RTG core: CA)”, the “recombinant barcode read abundance (log10)” value was 0.0735.
